Measured values reported in patent publication US6521222B1, “Inorganic/organic complexes for reducing skin irritation” (Societe L'Oreal S.A., priority 1999, dated 2003).

What was measured:
[1] = tested on: keratinocytes of Episkin human epidermis reconstituted in vitro; assay: Cytotoxicity (MTT test) on Episkin reconstructed skin after applying compositions; format: cell-based; conditions: 0.3% (w/V) 5-n-octanoylsalicylic acid added to composition A
Experimental: (§1) The Episkin system is a model of human epidermis reconstituted in vitro, which was manufactured by the company Episkin. The epidermis contained only one cell type: keratinocytes. The keratinocytes were seeded onto a dermis equivalent which was composed of various types of collagen.
(§2) After a period of proliferation of the keratinocytes immersed in the culture medium, the system was raised up to the air/liquid interface.
(§3) The assignee hereof has studied the cytotoxicity of the keratinocytes (3-(4,5-dimethylthiazol-2-yl)-2,5-diphenyltetrazolium bromide test) after applying to this reconstructed skin model various compositions in a proportion of 150 mg/cm^2, and maintaining same in an incubator at 37° C./5% CO2 for a period of 18 hours. Each composition was tested on two epidermides of 1.13 cm^2.
(§4) The basic composition A was:
(§5) The other compositions tested corresponded to this composition A to which 5-n-octanoylsalicylic acid, alone or in admixture with a compound of formula (I) according to the invention, was added.
(§6) The measurement of cell viability was carried out immediately after rinsing of the compositions with phosphate buffered saline (PBS).

[2] = as above; format: cell-based, human; conditions: human; composition A + 0.5% (w/V) 5-n-octanoylsalicylic acid, no compound of formula (I); 150 mg/cm^2, 18 hours, 37° C./5% CO2; read-out: % of cell viability
Experimental: as §1, §2, §3, §4, §5, §6

CCCCCCCC(=O)c1ccc(O)c(C(=O)O)c1 [5-n-octanoylsalicylic acid]
cytotoxicity of the composition [1]: cytotoxic
viability at 18 h, 0.5 % (w/V) [2]: 7.8%
